BindingDB's records for doi:10.1016/0960-894X(96)00067-4 (1996)

Test: Binding affinity towards sigma receptor in guinea pig brain membrane was determined by using [3H]DTG as the radioligand

OC12C3C4CC5C6C4C1C6C(C53)N2Cc1cccc(Br)c1 (stereo unspecified) [11-(3-bromobenzyl)-11-azahexacyclo[5.4.1.02,6.03,10.04,8.09,12]dodecan-1-ol]
Ki: 109 nM
